We go through seven compounds from US20210290629A1 (priority 2016, published 2021).

Series [1] concerns GFP-expressing Mycobacterium tuberculosis H37Rv. Format: cell-based.
Series [2] relates to Mycobacterium tuberculosis (Mtb H37Rv) in human monocyte-derived macrophages (hMDM). Format: cell-based. Conditions: seven days; for intracellular growth of Mycobacterium tuberculosis in primary human macrophages (CFU): 300 nM.
In series [3] the test system is human monocyte-derived macrophages (hMDM). In words: Cell viability analysis by impedance measurements (xCELLigence). Format: cell-based. The conditions noted are these: FIG. 5 and 6, range of tested concentrations (30, 100 and 300 nM), 120 h. Here is the method:
3) Cell Viability Analysis by Impedance Measurements
Real-time viability assays (5×10^4 human monocyte derived macrophages/well) were performed with the xCELLigence System (Acea Biosciences Inc.) (Otero-Gonzalez L et al., Environ Sci Technol. 2012; 46(18):10271-8). Impedance measurement was carried out using plates with incorporated sensor array (E-Plate) and the Real-Time Cell Analyzer (RTCA) SP instrument for 120 h. After equilibration of the cells in RPMI 1640 with 10% FCS and 4 mM L-glutamine for 3 h, cells incubated in the absence (medium) or the presence of the ACC2 inhibitor (30, 100 and 300 nM) and staurosporine (1 μg/ml). Data obtained was analyzed using the RTCA Software 2.0 (Acea Biosciences Inc.) see FIGS. 5 and 6.

The test system of the next series is M, tuberculosis. Conditions: literature, Singhal A. et al., Science Translational Medicine 2014; cited from earlier work.
Another series has as its target M. tuberculosis AccD5 (Mycobacterium tuberculosis, UniProt P9WQH7). The conditions noted are these: literature, Lin T-W. et al., PNAS 2006; cited from earlier work.
Setting [4] is: FIG. 8 and 9, indicated concentrations, day 7.

The structures appear in SMILES notation. Read-outs that look alike come from different tables or passages of the source.

Chain of M. tuberculosis AccD5 (P9WQH7 whole entry): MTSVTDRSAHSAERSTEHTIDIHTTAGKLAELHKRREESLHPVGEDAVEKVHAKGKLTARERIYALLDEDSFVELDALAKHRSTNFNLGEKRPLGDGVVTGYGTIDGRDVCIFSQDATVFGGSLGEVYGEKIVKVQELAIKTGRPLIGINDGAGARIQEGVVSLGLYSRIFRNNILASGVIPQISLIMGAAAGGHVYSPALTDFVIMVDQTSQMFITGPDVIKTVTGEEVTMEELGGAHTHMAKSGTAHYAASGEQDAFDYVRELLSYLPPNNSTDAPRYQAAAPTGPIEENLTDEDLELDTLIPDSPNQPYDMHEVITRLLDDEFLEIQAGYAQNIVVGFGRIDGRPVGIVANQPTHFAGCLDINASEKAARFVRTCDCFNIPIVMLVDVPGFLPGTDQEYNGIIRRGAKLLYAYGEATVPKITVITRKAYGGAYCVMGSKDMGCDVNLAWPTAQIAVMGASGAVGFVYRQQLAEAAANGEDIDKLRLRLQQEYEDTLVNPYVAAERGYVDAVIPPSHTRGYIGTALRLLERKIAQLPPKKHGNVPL
Chain of M. tuberculosis AccD5 (P9WPQ3 whole entry, further chain): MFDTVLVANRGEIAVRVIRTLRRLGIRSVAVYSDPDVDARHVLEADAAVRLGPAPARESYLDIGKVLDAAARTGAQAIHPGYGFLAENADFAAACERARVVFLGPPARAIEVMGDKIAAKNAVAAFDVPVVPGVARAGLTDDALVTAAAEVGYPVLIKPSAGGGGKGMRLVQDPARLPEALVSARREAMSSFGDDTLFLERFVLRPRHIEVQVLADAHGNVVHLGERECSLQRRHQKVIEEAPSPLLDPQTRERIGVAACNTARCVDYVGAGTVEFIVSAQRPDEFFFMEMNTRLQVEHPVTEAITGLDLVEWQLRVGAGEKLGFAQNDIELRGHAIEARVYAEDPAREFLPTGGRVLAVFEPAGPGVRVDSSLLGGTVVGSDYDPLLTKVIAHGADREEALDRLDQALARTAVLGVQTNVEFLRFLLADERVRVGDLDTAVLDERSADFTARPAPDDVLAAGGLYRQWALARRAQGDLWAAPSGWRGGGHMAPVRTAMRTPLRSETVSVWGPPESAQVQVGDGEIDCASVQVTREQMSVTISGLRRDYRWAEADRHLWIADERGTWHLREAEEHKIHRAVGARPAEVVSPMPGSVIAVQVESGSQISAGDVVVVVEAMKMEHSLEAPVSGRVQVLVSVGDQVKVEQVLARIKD

In the case of `CC(=O)NC(C)c1cnc(-c2cnc(Oc3ccc(OC(C)C)cc3)s2)s1` (stereo not drawn) [ab142090, N-(1-(2′-(4-isopropoxyphenoxy)-2,5′-bithiazol5-yl)ethyl)Acetamide], the “growth of Mycobacterium tuberculosis (Mtb) in liquid culture (fluorescence signal intensity at 528 nm)” value in series [1] (FIG. 1, indicated concentrations and time points, two independent experiments) is reported as “does not affect the growth”. Besides, the “intracellular growth of Mycobacterium tuberculosis in primary human macrophages (CFU)” value in series [2] (FIG. 2, 100 nM, three donors) is “dose-dependently reduces intracellular growth”. Also, in series [2] (FIG. 3, 100 nM or 300 nM in combination with rifampicin or isoniazid in suboptimal concentrations, three donors), the “intracellular growth of Mycobacterium tuberculosis in primary human macrophages (CFU), combination with antibiotics” value is “reduces intracellular growth”. Further, in series [3], the “viability of primary human macrophages (cell index, impedance)” value was “does not affect the viability”.

As to `COc1cc(C(=O)N2CCC3(CC2)CC(=O)c2cc(-c4cncc(C(=O)O)c4)ccc2O3)cc2c1c(C)cn2C1CC1` [MK-4074], the “growth of Mycobacterium tuberculosis (Mtb) in liquid culture (fluorescence signal intensity at 528 nm)” value in series [1] (setting [4]) was “do not affect growth”.

Regarding `O=C(c1c2ccccc2cc2ccccc12)N1CCC(N2CCC[C@@H](C(=O)N3CCOCC3)C2)CC1` [CP640.186], the “growth of Mycobacterium tuberculosis (Mtb) in liquid culture (fluorescence signal intensity at 528 nm)” value in series [1] (setting [4]) is “does not affect growth”. In addition, the “intracellular growth of Mycobacterium tuberculosis in primary human macrophages (CFU)” value in series [2] (FIG. 4, 500 nM, one out of two experiments) is on record as “dose-dependently reduces intracellular growth”. Moreover, the “viability of primary human macrophages (cell index, impedance)” value in series [3] is recorded as “does not affect the viability”. Take `CN(C)C(=N)N=C(N)N` [Metformin]: in the series with M, tuberculosis, the “intracellular growth of M. tuberculosis” value is “reducing the intracellular growth”. `CC(Oc1ccc(Oc2ccc(Cl)cc2Cl)cc1)C(=O)O` (stereo not drawn) [Diclofop]: on M. tuberculosis AccD5, the “inhibition of M. tuberculosis AccD5” value is on record as “cannot be inhibited”. `CC(Oc1ccc(Oc2ncc(C(F)(F)F)cc2Cl)cc1)C(=O)O` (stereo not drawn) [Haloxyfop]: the “inhibition of M. tuberculosis AccD5” value at M. tuberculosis AccD5 is “cannot be inhibited”. On to `COc1ccccc1[C@H](Cn1c(=O)n(C(C)(C)C(N)=O)c(=O)c2c(C)c(-c3ncco3)sc21)OC1CCOCC1` [ND-646], for which the “growth of Mycobacterium tuberculosis (Mtb) in liquid culture (fluorescence signal intensity at 528 nm)” value in series [1] (setting [4]) was “do not affect growth”.
